The target in series [1] is T1, soluble, human recombinant NEP (Homo sapiens, UniProt P08473).
T1 construct: soluble, human recombinant NEP; purchased Prof; Crine, University of Montreal, Canada
Kind of series: In-vitro investigation of the NEP inhibitory action (fluorescence-quenched Big-ET-1 analogue, HPLC). It is filed as biochemical. The method, then: 1. In-Vitro Investigation of the NEP Inhibitory Action of the Substances
In this test, the measure of the inhibitory activity of the substances which was determined was their IC50 value. The IC50 value of a test substance having enzyme-inhibitory activity is that concentration of the test substance at which 50% of the enzymatic activity of the NEP is blocked.
70 μl test buffer, 10 μl enzyme working solution and 10 μl test substance solution were mixed in an Eppendorf vessel and preincubated at 37° C. for 15 minutes (=min.). Then 10 μl substrate stock solution was added and the test batch was incubated for 60 minutes at 37° C. The enzymatic reaction was then ended by 5-minutes' heating to 95° C. After centrifugation (Heraeus Biofuge B, 3 min.), the liquid supernatant was investigated by HPLC in accordance with the following specifications.
The substrate was separated from cleavage products by means of reversed-phase HPLC (CC 125/4 Nucleosil 300/5 C18 RP column with CC 8/4 Nucleosil 100/5 C18 precolumn, from Macherey-Nagel, Düren, Germany). For this, 60 μl of the test mixture was injected into the HPLC sample injection point and the column was then eluted at a flow rate of 1 ml/min with the following gradient:
Mobile Phase B: 100% acetonitrile+0.5M H3PO4
All the peptides were detected by absorption at 214 nm and by fluorescence with an excitation wavelength of 328 nm and an emission wavelength of 393 nm.
Upon enzymatic cleavage of the peptide, the fluorophore (=Mca) and the quencher end up in different peptide fragments, which reduces the effectiveness of the quench. […] The increasing fluorescence signal (corresponds to the area, A) of the HPLC peak of the peptide with the non-quenched Mca fluorophore is used for the further calculations. This signal was compared for samples with (=Ainhib) and without (=Acontrol) test substance of Formula I, and the value “% inhibition” was calculated on the basis of the respective peak areas according to the following formula: % inhibition=100*(1−Ainhib/Acontrol)
All the samples were measured in duplicates and average values were calculated therefrom. A standard inhibitor (10 nM thiorphan) and a solvent control (0.1% DMSO) were likewise measured as quality controls on each run. In this test model the test substances of Formula I listed in the following Table 1 had the IC50 values given below: […]

Series [2] has as its target T2, His6-tagged hSEP ectodomain (Homo sapiens, UniProt Q495T6).
T2 construct: His6-tagged hSEP ectodomain; His6; purchased Innogenetics, Ghent, Belgium
T2 sequence (Q495T6 49-779 limits assumed): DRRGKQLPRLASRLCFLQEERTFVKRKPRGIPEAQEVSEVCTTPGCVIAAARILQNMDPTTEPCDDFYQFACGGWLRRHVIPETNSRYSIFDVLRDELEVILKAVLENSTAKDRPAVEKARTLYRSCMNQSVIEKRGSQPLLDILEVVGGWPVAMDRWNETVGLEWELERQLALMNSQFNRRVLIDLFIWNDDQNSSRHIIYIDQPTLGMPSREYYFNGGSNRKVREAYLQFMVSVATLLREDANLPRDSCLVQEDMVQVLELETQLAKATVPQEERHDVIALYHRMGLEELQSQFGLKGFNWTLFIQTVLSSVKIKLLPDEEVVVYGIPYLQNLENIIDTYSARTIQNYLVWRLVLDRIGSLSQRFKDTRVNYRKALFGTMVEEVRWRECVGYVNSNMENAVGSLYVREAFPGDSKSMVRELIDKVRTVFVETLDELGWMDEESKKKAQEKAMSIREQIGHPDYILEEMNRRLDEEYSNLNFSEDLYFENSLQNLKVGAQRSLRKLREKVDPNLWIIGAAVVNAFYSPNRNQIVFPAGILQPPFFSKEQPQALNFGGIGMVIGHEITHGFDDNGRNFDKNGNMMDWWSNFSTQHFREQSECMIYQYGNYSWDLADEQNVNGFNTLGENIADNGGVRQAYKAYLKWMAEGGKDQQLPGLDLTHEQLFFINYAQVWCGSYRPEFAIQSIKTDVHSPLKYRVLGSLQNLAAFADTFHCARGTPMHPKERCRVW
Put plainly: In vitro investigation of the hSEP-inhibitory action (fluorescence-quenched Big-ET-1 analogue, HPLC). It is filed as biochemical. The method, then: 2. In Vitro Investigation of the hSEP-Inhibitory Action of the Substances
In this test, the measure of the inhibitory activity of the substances which was determined was their IC50 value. The IC50 value of a test substance having enzyme-inhibitory activity is that concentration of the test substance at which 50% of the enzymatic activity of the hSEP is blocked.
The test and the HPLC procedure were carried out analogously to the manner set forth above for determining the in vitro inhibitory action of the test substances on NEP. 10 nM phosphoramidon served as standard inhibitor in the HPLC procedure. In this test model the test substances of Formula I listed in the following Table 2 had the IC50 values given below: […]

For series [3], the system named is formation of ET-1 from Big-ET-1. Kind of series: In vivo inhibition of the Big-ET-1-induced blood pressure increase in anaesthetised rats, i.v. single dose. Also noted: species or system Rats (Sprague-Dawley). To be noted: Rattus norvegicus, iv, 10 μmol/kg, 5 min before 0.5 nmol/kg Big-ET-1, negative values indicate inhibition, read-out: % substance-related inhibition of the maximum Big-ET effect on SAP vs. control. The text has this:
3. In Vivo Investigation of the Inhibitory Action of the Substances on the Formation of ET-1 from Big-ET-1 in Rats
ET-1 is an endogenous substance with strong vasoconstrictive effect. An increase in the ET-1 level results in an increase in blood pressure. Upon infusion of Big-ET-1, an increase in blood pressure takes place to the extent that ET-1 is produced therefrom by enzyme-catalysed cleavage of Big-ET-1. As a measurement of the enzyme-inhibiting action of the substances, their inhibitory action on the increase in blood pressure induced by infusion of Big-ET-1 was determined.
Rats (Sprague-Dawley, CRLD=Charles River) were anaesthetised with 1 ml/kg Rompun/Ketavet 1:1. A pressure transducer (Statham) was inserted into the carotid artery to measure blood pressure. One jugular vein was cannulated for administering the substance, and the other for administering Big-ET-1. After a 20-minute equilibration phase, the rats were administered the corresponding test substance of Formula I at a dose of as a rule 10 μmol/kg (if not stated otherwise), or a vehicle. Five minutes later, 0.5 nmol/kg Big-ET-1 was infused over a period of one minute. The systolic (SAP=systolic arterial pressure) and the diastolic (DAP=diastolic arterial pressure) blood pressure and the heart rate were each measured before administration of the substance, then immediately before administration of Big-ET and in each case every five minutes over a period of 30 minutes after Big-ET administration using the pressure transducer in known manner. The maximum Big-ET-induced increase in blood pressure and the maximum lowering of heart rate were calculated from the measured values as the difference between the value measured at the moment of maximum development of the Big-ET action (typically after 5 min.) and the value measured before Big-ET infusion. Furthermore, the integral of the blood pressure curve under the influence of Big-ET-1 was determined over 30 minutes (AUC=area under the curve).
The percentage inhibition of the maximum Big-ET-1 effect on the systolic arterial blood pressure (SAP) after i.v. administration of the test substances compared with administration of a vehicle is set forth in the following Table 3a:
Data given in table 3a as negative values indicate an inhibitory effect.

Series [4] relates to TUNEL positive cells in heart, liver and kidney. Put plainly: Adriamycin toxicity: determination of anti-apoptotic activity (TUNEL staining). It is filed as in vivo, Wistar rats. As to conditions: adriamycin alone, 3 x 5 mg/kg i.p. (cumulative 15 mg/kg), vehicle minipump; day 5; ± SEM. The method, then:
2. Adriamycin Toxicity: Determination of Anti-Apoptotic Activity
Wistar rats, weighing 200-250 g, were anesthetized with chloral hydrate, 400 mg/kg, and Alzet osmotic minipumps (2 ML1), were implanted subcutaneously (=s.c.). The pumps had been filled with either vehicle or solution containing compounds of the invention at the appropriate concentration and primed prior to implantation. Animals subsequently received adriamycin at three equal daily doses of 5 mg/kg i.p. on days 1, 2 and 3. Rats were euthanized 5 days after the first injection of adriamycin and transcardially perfused with a solution containing 4% paraformaldehyde in phosphate buffer. The heart, liver and kidneys were subsequently removed and embedded in parafin.
TUNEL staining: For terminal deoxynucleotide transferase-mediated dUTP nick end-label (TUNEL) based histological analysis, organs were post-fixed for 5 days at 4° C. and paraffin-embedded. TUNEL staining was performed on 10 μm thick paraffin sections using the ApopTag Peroxidase kit (S 7100, Oncor Appligene, Heidelberg, Germany) according to the manufacturer's instructions. Briefly, after pretreatment with proteinase K and quenching of endogenous peroxidase, sections were incubated in equilibration buffer followed by working strength TdT enzyme (incorporating digoxigenin labeled dUTP nucleotides to free 3′-OH DNA termini), (1 hr, 37° C.). Sections were incubated in stop/wash buffer (30 min, 37° C.), then with anti-digoxigenin-peroxidase conjugate (30 min) followed by DAB substrate (Sigma, Deisenhofen, Germany) and lightly counterstained with methylgreen.
Wistar rats were administered adriamycin at the cumulative dose of 15 mg/kg i.p. The test substance of Example 4 was administered s.c. at the doses of 20, 50 or 100 mg/kg and day by means of Alzet osmotic minipumps over 5 days. Animals were euthanized and transcardially perfused 5 days after the first injection of adriamycin and the heart, kidney and liver were processed for TUNEL staining. Densities of TUNEL positive cells were determined as described in the methods. Results for each organ (heart, liver, kidney) were measured as mean densities of TUNEL positive cells ±SEM for the control groups and the different test groups (20, 50 or 100 mg/kg and day of test compound of Example 4) and listed in table 8 below.
Comparisons between groups were performed by means of Student's t test (**P<0.01; ***P<0.001 compared to vehicle treated rats).

Some results are limits rather than exact numbers.

T1 sequence (P08473 52-750 limits assumed): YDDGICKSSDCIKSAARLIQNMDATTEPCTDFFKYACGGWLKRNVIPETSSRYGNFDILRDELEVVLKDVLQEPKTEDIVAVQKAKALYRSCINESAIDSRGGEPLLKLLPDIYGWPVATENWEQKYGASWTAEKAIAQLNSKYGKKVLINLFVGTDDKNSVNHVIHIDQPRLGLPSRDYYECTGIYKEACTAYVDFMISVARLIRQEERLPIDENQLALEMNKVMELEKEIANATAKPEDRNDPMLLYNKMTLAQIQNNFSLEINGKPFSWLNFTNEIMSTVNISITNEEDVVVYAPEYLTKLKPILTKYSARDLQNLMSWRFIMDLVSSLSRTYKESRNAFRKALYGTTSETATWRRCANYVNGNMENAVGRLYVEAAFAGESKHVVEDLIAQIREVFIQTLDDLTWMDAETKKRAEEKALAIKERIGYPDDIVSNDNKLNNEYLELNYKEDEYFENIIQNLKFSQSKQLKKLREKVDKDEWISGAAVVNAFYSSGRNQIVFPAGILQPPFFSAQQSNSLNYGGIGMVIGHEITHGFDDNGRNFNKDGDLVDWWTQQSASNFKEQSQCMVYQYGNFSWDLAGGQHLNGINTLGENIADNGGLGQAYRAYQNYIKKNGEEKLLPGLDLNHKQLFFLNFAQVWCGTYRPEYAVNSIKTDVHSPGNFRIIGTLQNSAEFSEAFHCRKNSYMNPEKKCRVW

Take `O=C(O)CN1C(=O)[C@@H](NC(=O)C2(CC(CC(=O)NC3CCCCNC3=O)C(=O)O)CCCC2)CCc2ccccc21` (mixture of isomers) [Example 17]: the IC50 (as a rule, the midpoint of a concentration-inhibition curve) in series [1] is under 1 nM; in series [2], 24 nM. Also, the change in vivo at 10 µmol/kg in series [3] was -46%.
As for `CCN(CCCCN)C(=O)CC(CC1(C(=O)NC2CCc3ccccc3N(CC(=O)O)C2=O)CCCC1)C(=O)O` (racemic) [Example 76, 4-[(4-aminobutyl)(ethyl)amino]-2-{[1-({[1-(carboxymethyl)-2-oxo-2,3,4,5-tetrahydro-1H-1-benzazepin-3-yl]amino}carbonyl)cyclopentyl]methyl}-4-oxobutanoic acid], the 50% inhibitory concentration (IC50) was found to be 10 nM in series [1] and 4 nM in series [2]. Besides, in series [3], the change in vivo at 10 µmol/kg was -93%.
Regarding `COc1ccc(C(=O)CNC(=O)CC(CC2(C(=O)N[C@H]3CCc4ccccc4N(CC(=O)O)C3=O)CCCC2)C(=O)O)cc1` (mixture of isomers) [Example 20], the concentration for half-maximal inhibition (IC50) came out at 12.9 nM in series [1] and 36.3 nM in series [2]. The change in vivo at 10 µmol/kg in series [3] was -67%.
On to `O=C(O)CN1C(=O)[C@@H](NC(=O)C2(CC(CC(=O)NCC3CC3)C(=O)O)CCCC2)CCc2ccccc21` (mixture of isomers) [Example 23], for which the half-maximal inhibitory concentration (IC50) in series [1] was determined as 10.6 nM; in series [2], 17.3 nM. In addition, in series [3], the change in vivo at 10 µmol/kg is -40%.
Turning to `CN(C)CCN(C)C(=O)CC(CC1(C(=O)NC2CCc3ccccc3N(CC(=O)O)C2=O)CCCC1)C(=O)O` (centres unmarked) [Example 59, 2-{[1-({[1-(carboxymethyl)-2-oxo-2,3,4,5-tetrahydro-1H-1-benzazepin-3-yl]amino}carbonyl)cyclopentyl]methyl}-4-[[2-(dimethylamino)ethyl](methyl)amino]-4-oxobutanoic acid], the results for the IC50 in series [1] and in series [2] were 12 nM and 4 nM, respectively. In series [3], the change in vivo at 10 µmol/kg is -98%.
As to `COc1cccc2c1C(=O)c1c(O)c3c(c(O)c1C2=O)C[C@@](O)(C(=O)CO)C[C@@H]3O[C@H]1C[C@H](N)[C@H](O)[C@H](C)O1` [Adriamycin, adriamycin, reference compound], in series [4], the “TUNEL positive cells, Heart” value was 5.417 ± 0.146 cells/mm3 × 102; the “TUNEL positive cells, Kidney” value was 9.438 ± 0.198 cells/mm3 × 102; the “TUNEL positive cells, Liver” value is 10.420 ± 0.275 cells/mm3 × 102.
As for `COc1ccc(CNC(=O)CC(CC2(C(=O)N[C@H]3CCc4ccccc4N(CC(=O)O)C3=O)CCCC2)C(=O)O)cc1` (mixture of isomers) [Example 24], the IC50 turned out to be 11.1 nM in series [1] and 27 nM in series [2]. The change in vivo at 10 µmol/kg in series [3] was -54%.
Take `COCCNC(=O)CC(CC1(C(=O)N[C@H]2CCc3ccccc3N(CC(=O)O)C2=O)CCCC1)C(=O)O` (mixture of isomers) [Example 16]: the IC50 came to 20 nM in series [1] and 15 nM in series [2]. For the same compound, the change in vivo at 10 µmol/kg in series [3] was -45%.
In the case of `COc1ccccc1CNC(=O)CC(CC1(C(=O)N[C@H]2CCc3ccccc3N(CC(=O)O)C2=O)CCCC1)C(=O)O` (single isomer, unassigned) [Example 31], the IC50 in series [1] came out at 4 nM; in series [2], 12.3 nM.

The values are drawn from US20080085889A1, “Amidomethyl-Substituted 1-(Carboxyalkyl) Cyclopentyl-Carbonylamino-Benzazepine-N-Acetic Acid Compounds, Process and Intermediate Products for Their Preparation and Pharmaceutical Compositions Containing Them” (SOLVAY PHARMACEUTICALS GmbH, priority 2003, published 2008).
